Reference: patent US20240239829A1 (priority 2021, published 2024)
Like-named read-outs stand apart in the source and are kept apart here.

Assays:
[1] = for stability: compound alone, 5 mg/ml, 37° C., SGF pH 1.0, PBS pH 4.5, SIF pH 7.3, 0.5-6 hours
[2] = tested on: A/PR/8/34(H1N1) influenza virus; set-up: species or system C57BL/6J mice; settings: mouse, in vivo
[3] = tested on: A/H3N2/Hong Kong/1/68 influenza virus; set-up: species or system C57BL/6J mice; settings: mouse, in vivo
respiratory infection = experiment: Prevention of respiratory infections of weaning piglets; format: in vivo
Text: The sick rate was about 10% and the death rate was about 5%. […] Control feed comprised 500 grams of Tilmicosin per 1000 kg. The nursery feeds were given to 763 of weaning piglets and 750 of controls from day 15 of the weaning period.

[4] = tested on: human lung epithelium cell line A549; experiment: Antibody binding to healthy or damaged A549 cells; format: cell-based
human fetal tissues = experiment: Antibody binding to human fetal tissues (tissue array slides); settings: lung, heart, kidney, brain, pancreas, liver, thymus and testicle
Text: (§1) Further, the Regn10987 antibody from COVID-19 infected patient and fetal tissues or multiple diseased tissues of tissue array slides (purchased from US Biomax) were used to evaluate the pathogenicity of the antibody specific to the SARS-CoV-2 S1 protein. […] In addition, the Regn10987 bound broadly to the human inflammatory tissues or cancer tissues of respiratory, cardiovesvular, urinary and digestive system (FIGS. 17A and 17B). The human inflammatory diseases tested include pneumonia, bronchitis, bronchiectasis, valvular disease, rheumatoid valvular disease, myocarditis, esophagitis, gastritis, collitis, appendicitis, pancreatitis, and hepatitis. The cancer tissues tested include small cell lung carcinoma, kidney clear cell carcinoma, and myxoma.

[5] = tested on: human inflammatory tissues or cancer tissues; experiment: Antibody binding to human diseased tissues (tissue array slides); settings: respiratory, cardiovascular, urinary and digestive system
Text: as §1

[6] = tested on: fetus and newborn mouse pups of timed-pregnant mice

CC(=O)N[C@H]1[C@H]([C@H](O)[C@H](O)CO)OC(O)(C(=O)O)C[C@@H]1O (some centres unmarked) [NANA, N-acetylneuraminic acid]
stability [1]: stable at all the pH conditions

COC(=O)[C@]1(O)CC(O)[C@@H](NC(C)=O)C(C(O)[C@H](O)CO)O1 (some centres unmarked) [NANA-Me, N-acetylneuraminic acid methyl ester]
deaths (survival rate) ([2]; pH 1.5): ineffective | deaths (survival rate) ([2]; pH 3.5): ineffective | deaths (survival rate) ([2]; pH 4.5): significantly reduced deaths | deaths (survival rate) ([2]; pH 7): ineffective | stability [1]: most stable at about pH 4.5 and least stable at about pH 7.3 | NANA-Me stability by ratio NANA:NANA-Me ([1]; pH 7.4): most stable at NANA:NANA-Me of 1:4 and least stable at NANA:NANA-Me of 1:1

CCOC(=O)C1=C[C@@H](OC(CC)CC)[C@H](NC(C)=O)[C@@H](N)C1 [Tamiflu]
body weight [2]: maintained better body weight | deaths (survival rate) [2]: significantly reduced the deaths | inflammation of lung and intestine (HE stained tissue sections) [2]: Severe inflammation | lung cytokine level of IL-1β [2]: remained abnormally higher | lung cytokine level of IL-6 [2]: remained abnormally higher | lung cytokine level of TNF-α [2]: remained abnormally higher | serum cytokine level of IL-6 [2]: significantly reduced | serum cytokine level of TNF-α [2]: significantly reduced | deaths (survival rate) ([2]; listed as Tamilu): did not show significant effect | therapeutic efficacy compared to vehicle controls [3]: did not show significant efficacy

CC[C@H]1OC(=O)C[C@@H](O)[C@H](C)[C@@H](O[C@@H]2O[C@H](C)[C@@H](O)[C@H](N(C)C)[C@H]2O)[C@@H](CCN2C[C@H](C)C[C@H](C)C2)C[C@@H](C)C(=O)/C=C/C(C)=C/[C@@H]1CO[C@@H]1O[C@H](C)[C@@H](O)[C@@H](OC)[C@H]1OC [Tilmicosin]
Odds Ratio (respiratory infection; death): 5.76 | Death (respiratory infection; number of piglets, nursery feed for 4 days from day 15 of weaning): 38

MAb-Regn10987: naturally occurred human monoclonal antibody specific to the COVID-19 (SARS-CoV-2) S1 protein
binding to damaged A549 cells ([4]; A549 cells with missed sialic acid on the cell surface): strongly bound | binding to healthy A549 cells ([4]; healthy (intact) A549 cells): weakly bound | binding to human fetal tissues (human fetal tissues): bound | binding to human inflammatory tissues or cancer tissues [5]: bound broadly | histological changes of lungs of mouse pups (HE) ([6]; mouse, in vivo): Acute lung inflammation and injury | histology of the brains of mouse pups (HE) ([6]; mouse, in vivo): Large amount of inflammatory cells infiltration | Death (%) ([6]; mouse, in vivo, ip): 44.8% | Sick (%) ([6]; mouse, in vivo, ip): 17.1% | Sick + Death (%) ([6]; mouse, in vivo, ip): 61.9% | Odds Ratio ([6]; sick and death of mouse pups, vs saline): 21.3
